Laboratory results: patent publication US9056863B2, “Substituted 2,3,5,9,9B-pentaazacyclopenta[a]naphthalenes and uses thereof” (H. Lundbeck A/S, priority 2011, dated 2015)

Legend:
[1] = cited from earlier work
[2] = tryptophan depletion; cited from earlier work
[3] = mice, BSO glutathione depletion; cited from earlier work
[4] = aged rats; cited from earlier work
[5] = in vivo; cited from earlier work
[6] = tested on: primary neuronal cultures and hippocampal slices; settings: cited from earlier work
rat hippocampal slices = settings: cited from earlier work
[7] = cited from earlier work; remark: listed apart in the source
human PDE10A = human PDE10A (Homo sapiens (Human), UniProt Q9Y233); test: PDE10A inhibition assay; assay type: biochemical; settings: for PDE10 % inhibition: @ 10,000 nM
Protocol: Active PDE10A enzyme is prepared in a number of ways for use in PDE assays (Loughney, K. et al. Gene 1999, 234, 109-117; Fujishige, K. et al. Eur J. Biochem. 1999, 266, 1118-1127 and Soderling, S. et al. Proc. Natl. Acad. Sci. 1999, 96, 7071-7076). PDE10A can be expressed as full-length proteins or as truncated proteins, as long as they express the catalytic domain. PDE10A can be prepared in different cell types, for example insect cells or E. coli. An example of a method to obtain catalytically active PDE10A is as follows: The catalytic domain of human PDE10A (amino acids 440-779 from the sequence with accession number NP 006652) is amplified from total human brain total RNA by standard RT-PCR and is cloned into the BamH1 and XhoI sites of the pET28a vector (Novagen). Expression in coli is performed according to standard protocols. Briefly, the expression plasmids are transformed into the BL21(DE3) E. coli strain, and 50 mL cultures inoculated with the cells allowed to grow to an OD600 of 0.4-0.6 before protein expression is induced with 0.5 mM IPTG. Following induction, the cells are incubated overnight at room temperature, after which the cells are collected by centrifugation. Cells expressing PDE10A are resuspended in 12 mL (50 mM TRIS-HCl-pH8.0, 1 mM MgCl2 and protease inhibitors). The cells are lysed by sonication, and after all cells are lysed, TritonX100 is added according to Novagen protocols.
A typical PDE10A assay was performed as follows: the assay was performed in 60 μL samples containing a fixed amount of the […] enzyme (sufficient to convert 20-25% of the cyclic nucleotide substrate), a buffer (50 mM HEPES pH 7.6; 10 mM MgCl2; 0.02% Tween20), 10 nM tritium labelled cAMP and varying amounts of inhibitors. […] The beads were allowed to settle for 1 h in the dark before the plates were counted in a Wallac 1450 Microbeta counter. The measured signals were converted to activity relative to an uninhibited control (100%) and IC50 values were calculated using XlFit (model 205, IDBS).

human PDE2A enzyme = human PDE2A enzyme (Homo sapiens (Human), UniProt O00408); test: PDE2A inhibition assay; assay type: biochemical; settings: 15 nM tritium labelled cAMP, SPA
Protocol: Likewise, active human PDE2A enzyme (ATCC68585) is prepared in a number of ways for use in PDE assays and procedures are well known to those skilled in the art.
A typical PDE2A assay was performed as follows: the assay was performed in 60 μL samples containing a fixed amount of the […] enzyme (sufficient to convert 20-25% of the cyclic nucleotide substrate), a buffer (50 mM HEPES pH 7.6; 10 mM MgCl2; 0.02% Tween20), 0.1 mg/ml BSA, 15 nM tritium labelled cAMP and varying amounts of inhibitors. Reactions were initiated by addition of the cyclic nucleotide substrate, and reactions were allowed to proceed for 1 h at room temperature before being terminated through mixing with 20 μL (0.2 mg) yttrium silicate SPA beads (Amersham). The beads were allowed to settle for 1 h in the dark before the plates were counted in a Wallac 1450 Microbeta counter. The measured signals were converted to activity relative to an uninhibited control (100%) and IC50 values were calculated using XlFit (model 205, IDBS).

[8] = rats; cited from earlier work
[9] = rats, subchronic phencyclidine; cited from earlier work

Chain of human PDE10A (Q9Y233 716-1055): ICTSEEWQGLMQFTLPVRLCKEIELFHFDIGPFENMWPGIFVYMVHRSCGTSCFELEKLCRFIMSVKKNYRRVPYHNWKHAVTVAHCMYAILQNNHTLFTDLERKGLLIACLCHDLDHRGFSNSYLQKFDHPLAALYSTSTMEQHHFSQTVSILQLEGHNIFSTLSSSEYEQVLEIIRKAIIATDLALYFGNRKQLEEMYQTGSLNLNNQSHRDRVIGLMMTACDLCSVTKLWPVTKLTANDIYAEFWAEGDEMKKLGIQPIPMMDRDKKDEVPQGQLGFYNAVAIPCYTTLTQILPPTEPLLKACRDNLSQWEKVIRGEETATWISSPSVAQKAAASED
Chain of human PDE2A enzyme (O00408 whole entry): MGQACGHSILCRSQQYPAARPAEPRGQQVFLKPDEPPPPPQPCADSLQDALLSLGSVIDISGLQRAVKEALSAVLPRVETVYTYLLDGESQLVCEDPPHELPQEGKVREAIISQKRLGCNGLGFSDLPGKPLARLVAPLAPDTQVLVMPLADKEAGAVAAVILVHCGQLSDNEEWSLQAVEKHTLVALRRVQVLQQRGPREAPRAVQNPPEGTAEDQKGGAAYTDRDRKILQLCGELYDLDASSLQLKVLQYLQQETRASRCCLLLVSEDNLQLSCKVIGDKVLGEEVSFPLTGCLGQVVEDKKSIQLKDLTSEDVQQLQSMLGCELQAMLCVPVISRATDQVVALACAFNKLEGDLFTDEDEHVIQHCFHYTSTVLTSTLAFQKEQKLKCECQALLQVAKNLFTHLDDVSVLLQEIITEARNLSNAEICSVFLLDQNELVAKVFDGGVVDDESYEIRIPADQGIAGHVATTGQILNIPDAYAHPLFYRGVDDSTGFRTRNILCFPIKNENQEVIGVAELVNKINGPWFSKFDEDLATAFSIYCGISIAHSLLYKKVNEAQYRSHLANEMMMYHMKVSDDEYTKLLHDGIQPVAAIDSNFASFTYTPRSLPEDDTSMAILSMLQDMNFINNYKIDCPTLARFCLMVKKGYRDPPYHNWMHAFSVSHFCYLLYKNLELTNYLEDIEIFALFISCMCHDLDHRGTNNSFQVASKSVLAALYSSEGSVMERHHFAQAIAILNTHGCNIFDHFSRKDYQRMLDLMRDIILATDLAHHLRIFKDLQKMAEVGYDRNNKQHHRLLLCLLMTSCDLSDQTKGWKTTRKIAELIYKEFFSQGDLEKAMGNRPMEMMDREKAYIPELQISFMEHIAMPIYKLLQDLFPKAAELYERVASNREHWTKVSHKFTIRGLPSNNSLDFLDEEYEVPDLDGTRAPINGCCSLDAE

Question: With COc1cc2c(cc1-c1ccccc1)C(c1cccc(C(N)=O)c1)=NCC(=O)N2C [ND7001] as the molecule, how does the “anxiogenic effects of restraint stress on behaviour” value (from here on “anxiogenic effects”) [1] read?
Answer: Its value is “antagonized the anxiogenic effects”.

Question: With COc1ccc(Cc2nn3c([C@@H](CCCc4ccccc4)[C@@H](C)O)nc(C)c3c(=O)[nH]2)cc1OC [Bay 60-7550] as the molecule, how does the “deficit in object recognition” value [2] read?
Answer: Its value is “reverse the deficit in object recognition”.

Question: And the anxiety-like behaviours [3]?
Answer: The anxiety-like behaviours was “reversed”.

Question: And the object recognition [4]?
Answer: Its object recognition is “beneficial effect”.

Question: What about the “activity in novel object and social recognition tasks” value [5] of the same molecule?
Answer: The value was “active”.

Question: And the “anxiogenic effects” value [1]?
Answer: The value was “antagonized the anxiogenic effects”.

Question: What about the cGMP [6] of the same molecule?
Answer: Its cGMP is “preferentially increases cGMP”.

Question: What about the “long term potentiation (LTP) induction” value (rat hippocampal slices) of the same molecule?
Answer: The value was “increases long term potentiation (LTP) induction”.

Question: What does the source list for O=C(CCCN1CCC(O)(c2ccc(Cl)cc2)CC1)c1ccc(F)cc1 [haloperidol]?
Answer: cGMP levels ([7]; patients): increased; cAMP levels ([7]; rats): increased

Question: Which results are given for Cc1nc2cnccc2n2c(-c3ccccc3Cl)nnc12 [Example Ib1, 1-(2-Chloro-phenyl)-4-methyl-2,3,5,7,9b-pentaaza-cyclopenta[a]naphthalene]?
Answer: PDE10 % inhibition (human PDE10A): 68% inhibition; IC50 (human PDE2A enzyme): 471 nM

Question: Which “anxiogenic effects” value [1] does the source give for NCCN(CCN)/[N+]([O-])=N/O [detanonoate] here?
Answer: Its value is “antagonized the anxiogenic effects”.

Question: Which PDE10 % inhibition (human PDE10A) does the source give for Cc1cccc(Cl)c1-c1nnc2c(C)nc3ncccc3n12 [Example Ia2, 1-(2-Chloro-6-methyl-phenyl)-4-methyl-2,3,5,6,9b-pentaaza-cyclopenta[a]naphthalene] here?
Answer: The PDE10 % inhibition was 48% inhibition.

Question: What about the IC50 (human PDE2A enzyme) of the same molecule?
Answer: The IC50 was 504 nM.

Question: With Cc1nc2ccncc2n2c(-c3ccccc3Cl)nnc12 [Example Ic1, 1-(2-Chloro-phenyl)-4-methyl-2,3,5,8,9b-pentaaza-cyclopenta[a]naphthalene] as the molecule, how does the IC50 (human PDE10A; 10 nM tritium labelled cAMP, SPA, read-out: PDE10 IC50) read?
Answer: Its IC50 is 1760 nM.

Question: What does the source list for COc1ccc(Cc2nccc3cc(OC)c(OC)cc23)cc1OC [papaverine]?
Answer: apomorphine-induced stereotypies [8]: reduces apomorphine-induced stereotypies; dopamine concentration in rat brain [8]: reducing dopamine concentration; haloperidol-induced catalepsy [8]: increases haloperidol-induced catalepsy; attentional set-shifting deficits [9]: reverses attentional set-shifting deficits
